Reference: PubChem BioAssay AID1963862 (Molecular Pharmacology Branch, DTP, NCI, 2024)

System: KRAS patient-derived spheroids with HUVEC/MSC, viability
Test: Anticancer human tumor 941728-121-R-J1-PDC patient-derived lung adenocarcinoma cell line growth inhibition [KRAS2]
Conditions: for IC50: curve of first compound; for viability, T/C: stronger effect = lower value
Procedure, shortened: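 KRAS-mutant tumor cells were grown as spheroids with HUVEC endothelial cells and human MSCs as stroma. Targeted agents were tested alone and with KRAS pathway inhibitors. Doses started at or near clinical Cmax, or 10 microM, descending half-log.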

[1] = second compound 0.1 µM, first compound 0.0316 µM
[2] = second compound 0.1 µM, first compound 0.1 µM
[3] = second compound 0.316 µM, first compound 0.0316 µM
[4] = second compound 0.316 µM, first compound 0.1 µM
[5] = second compound 1 µM, first compound 0.0316 µM
[6] = second compound 1 µM, first compound 0.1 µM
[7] = second compound 3.16 µM, first compound 0.0316 µM
[8] = second compound 3.16 µM, first compound 0.1 µM
[9] = second compound 10 µM, first compound 0.0316 µM
[10] = second compound 10 µM, first compound 0.1 µM
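Note: spheroids exposed to agents for seven days before readout.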

## CN(C)C/C=C/C(=O)Nc1cc2c(Nc3ccc(F)c(Cl)c3)ncnc2cc1O[C@H]1CCOC1 + CNCc1ccccc1-c1csc(C(C)Nc2nc(C)nc3cc(OC)c(OC)cc23)c1
Second compound 0.1 µM
  IC50: < 0.316 nM
Second compound 0.316 µM
  IC50: < 0.316 nM
Second compound 1 µM
  IC50: < 0.316 nM
Second compound 3.16 µM
  IC50: < 0.316 nM
Second compound 10 µM
  IC50: < 0.316 nM
Second compound 0.1 µM, first compound 0.000316 µM
  viability, T/C: 44%
Second compound 0.1 µM, first compound 0.001 µM
  viability, T/C: 45.9%
Second compound 0.1 µM, first compound 0.00316 µM
  viability, T/C: 36.2%
Second compound 0.1 µM, first compound 0.01 µM
  viability, T/C: 34.6%
[1]
  viability, T/C: 31.6%
[2]
  viability, T/C: 35.6%
Second compound 0.316 µM, first compound 0.000316 µM
  viability, T/C: 32.6%
Second compound 0.316 µM, first compound 0.001 µM
  viability, T/C: 24.5%
Second compound 0.316 µM, first compound 0.00316 µM
  viability, T/C: 28.5%
Second compound 0.316 µM, first compound 0.01 µM
  viability, T/C: 23.8%
[3]
  viability, T/C: 25.6%
[4]
  viability, T/C: 29.9%
Second compound 1 µM, first compound 0.000316 µM
  viability, T/C: 20.5%
Second compound 1 µM, first compound 0.001 µM
  viability, T/C: 19.6%
Second compound 1 µM, first compound 0.00316 µM
  viability, T/C: 18.5%
Second compound 1 µM, first compound 0.01 µM
  viability, T/C: 19.6%
[5]
  viability, T/C: 20.6%
[6]
  viability, T/C: 19.4%
Second compound 3.16 µM, first compound 0.000316 µM
  viability, T/C: 0.61%
Second compound 3.16 µM, first compound 0.001 µM
  viability, T/C: 0.24%
Second compound 3.16 µM, first compound 0.00316 µM
  viability, T/C: 0.15%
Second compound 3.16 µM, first compound 0.01 µM
  viability, T/C: 0.14%
[7]
  viability, T/C: 0.13%
[8]
  viability, T/C: 0.18%
Second compound 10 µM, first compound 0.000316 µM
  viability, T/C: 0.05%
Second compound 10 µM, first compound 0.001 µM
  viability, T/C: 0.04%
Second compound 10 µM, first compound 0.00316 µM
  viability, T/C: 0.04%
Second compound 10 µM, first compound 0.01 µM
  viability, T/C: 0.08%
[9]
  viability, T/C: 0.04%
[10]
  viability, T/C: 0.32%

## COC(=O)c1ccc2c(C(=Nc3ccc(N(C)C(=O)CN4CCN(C)CC4)cc3)c3ccccc3)c(O)[nH]c2c1 + CNCc1ccccc1-c1csc(C(C)Nc2nc(C)nc3cc(OC)c(OC)cc23)c1
Second compound 0.1 µM
  IC50: 1740 nM
Second compound 0.316 µM
  IC50: < 31.6 nM
Second compound 1 µM
  IC50: < 31.6 nM
Second compound 3.16 µM
  IC50: < 31.6 nM
Second compound 10 µM
  IC50: < 31.6 nM
[1]
  viability, T/C: 59.9%
[2]
  viability, T/C: 49.5%
Second compound 0.1 µM, first compound 0.316 µM
  viability, T/C: 47.1%
Second compound 0.1 µM, first compound 1 µM
  viability, T/C: 63.4%
Second compound 0.1 µM, first compound 3.16 µM
  viability, T/C: 42.4%
Second compound 0.1 µM, first compound 10 µM
  viability, T/C: 35.8%
[3]
  viability, T/C: 46.4%
[4]
  viability, T/C: 44.1%
Second compound 0.316 µM, first compound 0.316 µM
  viability, T/C: 41.5%
Second compound 0.316 µM, first compound 1 µM
  viability, T/C: 35%
Second compound 0.316 µM, first compound 3.16 µM
  viability, T/C: 9.64%
Second compound 0.316 µM, first compound 10 µM
  viability, T/C: 20.3%
[5]
  viability, T/C: 22.6%
[6]
  viability, T/C: 24.5%
Second compound 1 µM, first compound 0.316 µM
  viability, T/C: 19.5%
Second compound 1 µM, first compound 1 µM
  viability, T/C: 25.6%
Second compound 1 µM, first compound 3.16 µM
  viability, T/C: 3.56%
Second compound 1 µM, first compound 10 µM
  viability, T/C: 5.39%
[7]
  viability, T/C: 0.42%
[8]
  viability, T/C: 0.43%
Second compound 3.16 µM, first compound 0.316 µM
  viability, T/C: 0.22%
Second compound 3.16 µM, first compound 1 µM
  viability, T/C: 0.73%
Second compound 3.16 µM, first compound 3.16 µM
  viability, T/C: 0.79%
Second compound 3.16 µM, first compound 10 µM
  viability, T/C: 0.62%
[9]
  viability, T/C: 0.47%
[10]
  viability, T/C: 0.1%
Second compound 10 µM, first compound 0.316 µM
  viability, T/C: 0.08%
Second compound 10 µM, first compound 1 µM
  viability, T/C: 0.1%
Second compound 10 µM, first compound 3.16 µM
  viability, T/C: 0.11%
Second compound 10 µM, first compound 10 µM
  viability, T/C: 0.15%
